Consider twelve compounds from patent US6503935B1, “Imidazoles and related compounds as α1A agonists” (Abbott Laboratories, priority 1998, dated 2003).

Experiment [1] deals with T1, α1d (rat receptor expressed in mouse fibroblasts) (Rattus norvegicus, UniProt P23944).
T1 construct: expressed in transfected cells; host or cells: mouse fibroblasts
T1 sequence (P23944 1-561): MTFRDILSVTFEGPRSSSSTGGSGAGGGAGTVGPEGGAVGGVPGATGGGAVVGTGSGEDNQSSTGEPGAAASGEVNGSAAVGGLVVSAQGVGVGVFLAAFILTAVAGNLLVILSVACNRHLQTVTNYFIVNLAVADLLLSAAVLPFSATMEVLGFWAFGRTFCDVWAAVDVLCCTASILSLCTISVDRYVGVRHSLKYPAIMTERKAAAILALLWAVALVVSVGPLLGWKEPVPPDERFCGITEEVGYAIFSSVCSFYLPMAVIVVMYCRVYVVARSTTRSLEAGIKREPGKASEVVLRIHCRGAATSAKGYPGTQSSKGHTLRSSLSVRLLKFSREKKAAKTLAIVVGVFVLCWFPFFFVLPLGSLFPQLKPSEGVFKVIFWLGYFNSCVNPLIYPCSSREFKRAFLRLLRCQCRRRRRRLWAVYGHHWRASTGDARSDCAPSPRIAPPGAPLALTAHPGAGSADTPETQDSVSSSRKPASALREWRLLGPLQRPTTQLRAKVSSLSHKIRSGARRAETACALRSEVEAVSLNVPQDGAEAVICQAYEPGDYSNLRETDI
As to the kind of experiment: Radioligand binding with [3H]-prazosin, α1d. Conditions: rat receptor expressed in mouse fibroblasts, [3H]-prazosin. In a few lines:
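Radioligand binding with [3H]-prazosin: α1A from rat submaxillary gland; α1b hamster receptor and α1d rat receptor, each expressed in mouse fibroblasts.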

A further experiment has as its target T2, α1A (rabbit urethra) (Oryctolagus cuniculus, UniProt O02824).
T2 construct: tested for α1A functional activity using rabbit urethra; from tissue; host or cells: rabbit urethra
T2 sequence (O02824 1-466): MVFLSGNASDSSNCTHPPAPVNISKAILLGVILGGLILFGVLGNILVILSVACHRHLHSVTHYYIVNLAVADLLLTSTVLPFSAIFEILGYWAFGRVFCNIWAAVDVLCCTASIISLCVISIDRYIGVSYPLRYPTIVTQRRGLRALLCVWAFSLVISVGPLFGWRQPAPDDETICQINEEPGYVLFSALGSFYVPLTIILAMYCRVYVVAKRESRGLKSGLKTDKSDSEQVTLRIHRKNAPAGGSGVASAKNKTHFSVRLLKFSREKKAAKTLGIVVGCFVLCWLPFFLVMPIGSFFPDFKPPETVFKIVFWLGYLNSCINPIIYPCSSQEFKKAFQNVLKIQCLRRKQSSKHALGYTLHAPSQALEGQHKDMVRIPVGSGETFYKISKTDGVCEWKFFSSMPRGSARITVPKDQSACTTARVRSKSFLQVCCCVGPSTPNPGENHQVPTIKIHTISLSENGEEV
As to the kind of experiment: Agonist contraction of smooth muscle tissue, rabbit urethra. The following applies: rabbit urethra; read-out: Agonist Tissue Response (pD2) α1A (rab ureth) (converted). Type of experiment: cell-based. As to the method: Most of the compounds were tested for α1A functional activity using rabbit urethra as follows. Female New Zealand white rabbits (2.0-3.5 Kg) were sedated with CO2 and decapitated. […] Subsequent experimental conditions were as described above for the other tissues. Agonist concentration response curves were cumulative except for the vas deferens assay in which the transient response made such measurements impractical.

Experiment [2] relates to Anesthetized Dogs. As to the kind of experiment: Intraurethral pressure (IUP) in anesthetized dogs. Format: in vivo, dog. Conditions: for Mean Selectivity Ratio MAP ED20/IUP ED5 / Mean IUP ED5 / ED (5 mmHg IUP increase): anesthetized female dogs; for Mean Selectivity Ratio MAP ED20/IUP ED5 / ED (5 mmHg IUP increase): iv; for Mean IUP ED5 / ED (5 mmHg IUP increase): iv dose causing a maximum increase in IUP of 5 mm Hg; for Mean IUP ED5: maleate; for ED (5 mmHg IUP increase): Canis lupus familiaris, read-out: Mean IUP ED5. The text has this: In vivo Functional Assays-Assessment of Intrurethral Pressure (IUP) and Mean Arterial Pressure (MAP) in Anesthetized Dogs
Female dogs (Marshall Farms, North Rose, N.Y.) greater that 2 years of age and weighing between 12 and 15 kg were used in these studies. At least 2 weeks prior to any agonist dosing, dogs were instrumented for the chronic measurement of arterial blood pressure by implanting a telemetry transducer/transmitter (TA11PA-C40, Data Sciences International, St. Paul, Minn.) into a carotid artery.
On the test day, dogs fasted since the previous afternoon were pre-anesthetized with thiopental sodium 15 mg/kg i.v. (Pentothal™, Abbott) and intubated. Anesthesia was maintained by allowing the dog to spontaneously breathe a mixture of isoflurane (2.5 to 3 volume %) and oxygen delivered by a Narkomed Standard anesthesia system (North American Drager, Telford, Pa.). An Abbocath-T™ i.v. catheter (18-G, Abbott) was inserted into the cephalic vein for the administration of agonists. A telemetry receiver (RA1310, DataSciences) was placed under the head of each dog and was interfaced to a computerized data acquisition system (Modular Instruments Inc.(MI2), Malvern, Pa.) which allowed for the continuous calibrated recording of arterial blood pressure which was electronically filtered to determine its mean value (MAP).
Dogs with chronic telemetry implants anesthetized as described above were placed in dorsal recumbency and a balloon catheter was inserted into the urethral orifice and advanced approximately 15 cm until the tip was well inside the bladder. The balloon was then inflated with 1 ml of room air and the catheter slowly withdrawn until resistance (corresponding to the bladder neck) was evident. The balloon was then deflated and the catheter withdrawn an additional 2 cm. The balloon was then reinflated and its catheter port connected to a Gould Statham P23Dd pressure transducer interfaced to a computerized data acquisition system (Modular Instruments, Inc., Malvern, Pa.) for the measurement of intraurethral pressure. Increasing iv doses of test agonists were administered and the maximum effect of each dose on IUP was recorded. The effect of each dose was allowed to return to baseline before the next dose was given.
From the resulting dose response curve, an ED5 value, for the dose causing a maximum increase in IUP of 5 mm Hg, could be estimated. An ED20 value for the dose causing a maximum increase in MAP of 20 mm Hg could also be estimated. A selectivity ratio of MAP ED20 vs. IUP ED5 was calculated.

Experiment [3] relates to Anesthetized Dogs. As to the kind of experiment: Intraurethral pressure (IUP) in anesthetized dogs. Conditions: Canis lupus familiaris; iv dose causing a maximum increase in IUP of 5 mm Hg, anesthetized female dogs; read-out: Mean IUP ED5. Type of experiment: in vivo, dog.
Where [4] appears, read: read-out: Radioligand Binding Ki α1d (Rat).
[5] abbreviates: Radioligand Binding Ki α1d (Rat).

Where a name gives a salt, the structure may show the parent alone. Read-outs that look alike come from different tables or passages of the source.

For `CCS(=O)(=O)Nc1cccc2c1CCCC2c1c[nH]cn1.O=C(O)/C=C\C(=O)O` (single isomer, unassigned; (+)) [Example 33, (+)-N-[5-(1H-imidazol-4-yl)-5,6,7,8-tetrahydro-1-naphthalenyl]ethanesulfonamide, maleate], the inhibition constant (Ki) – broadly, a dissociation constant, usually derived from enzyme kinetics or from competition with a known ligand – in experiment [1] (setting [4]) was 1080 nM. Moreover, the EC50 on α1A (rabbit urethra) was 170 nM. For the same compound, in the experiment on Anesthetized Dogs [2], the “Mean Selectivity Ratio MAP ED20/IUP ED5” value was determined as 3.3 and the “Mean IUP ED5” value came out at 10.5 nmol/kg.

Consider `CCS(=O)(=O)Nc1cccc2c1CCCC2c1c[nH]cn1.O=C(O)/C=C\C(=O)O` (single isomer, unassigned; (-)) [Example 34, (−)-N-[5-(1H-imidazol-4-yl)-5,6,7,8-tetrahydro-1-naphthalenyl]ethanesulfonamide, maleate], for which, in experiment [1] (setting [4]), the inhibition constant (Ki) was 842 nM. Further, the EC50 at α1A (rabbit urethra) is 28200 nM. In the experiment with Anesthetized Dogs [2], the “Mean IUP ED5” value is over 1000 nmol/kg.

As for `CCS(=O)(=O)Nc1cccc2c1CCCC2c1c[nH]cn1.O=C(O)/C=C\C(=O)O` (stereo not drawn) [Example 12, N-[5-(1H-imidazol-4-yl)-5,6,7,8-tetrahydro-1-naphthalenyl]ethanesulfonamide, maleate], the inhibitory constant (Ki) in experiment [1] (setting [4]) was 1670 nM. For the same compound, on α1A (rabbit urethra), the EC50 was 631 nM. For the same compound, in the experiment with Anesthetized Dogs [2], the ED (5 mmHg IUP increase) was determined as 0.0107 µmol/kg and the “Mean Selectivity Ratio MAP ED20/IUP ED5” value is recorded as 7.6.

On to `CN(c1cccc2c1CCCC2c1c[nH]cn1)S(C)(=O)=O` (stereo not drawn) [Example 15, N-[5,6,7,8-tetrahydro-5-(1H-imidazol-4-yl)-1-naphthalenyl]-N-methylmethanesulfonmamide, maleate], for which, in experiment [1] (setting [4]), the inhibition constant (Ki) was 701 nM. For the same compound, on α1A (rabbit urethra), the EC50 was 692 nM. Further, the “Mean Selectivity Ratio MAP ED20/IUP ED5” value in the experiment with Anesthetized Dogs [2] worked out at 2.5.

As for `O=C(Nc1cccc2c1CCCC2c1c[nH]cn1)C(F)(F)F` (stereo not drawn) [Example 17, 2,2,2-trifluoro-N-[5-(1H-imidazol-4-yl)-5,6,7,8-tetahydro-1-naphthalenyl]acetamide, maleate], the Ki in experiment [1] (setting [4]) is 3300 nM. For the same compound, the EC50 at α1A (rabbit urethra) is 525 nM. Further, in the experiment on Anesthetized Dogs [2], the “Mean Selectivity Ratio MAP ED20/IUP ED5” value is 1.1.

The compound `CS(=O)(=O)Nc1cccc(Cc2c[nH]cn2)c1.O=C(O)/C=C\C(=O)O` [Example 21, N-[3-(1H-imidazol-4-ylmethyl)phenyl]methanesulfonamide, maleate] displayed an inhibition constant Ki in experiment [1] (setting [5]) of 212 nM. For the same compound, the EC50 on α1A (rabbit urethra) is 1860 nM. Besides, the ED (5 mmHg IUP increase) with Anesthetized Dogs [3] turned out to be 0.0227 µmol/kg.

Consider `COc1ccc(NS(C)(=O)=O)c2c1C(c1c[nH]cn1)CCC2` (stereo not drawn) [Example 26, N-[5,6,7,8-tetrahydro-(1H-imidazol-4-yl)-4-methoxyy-1-naphthalenyl]methanesulfonamide, maleate], for which the EC50 on α1A (rabbit urethra) was 15500 nM. The “Mean Selectivity Ratio MAP ED20/IUP ED5” value in the experiment on Anesthetized Dogs [2] was 2.6. In addition, the ED (5 mmHg IUP increase) in the experiment on Anesthetized Dogs [3] came out at 0.653 µmol/kg.

Compound `Cc1c(Cc2c[nH]cn2)cccc1NS(C)(=O)=O.O=C(O)/C=C\C(=O)O` [Example 28, N-[3-(1H-imidazol-4-ylmethyl)-2-methylphenyl]methanesulfonamide, maleate] yielded a Ki in experiment [1] (setting [5]) of 815 nM. Further, the EC50 at α1A (rabbit urethra) is 5620 nM. The “Mean Selectivity Ratio MAP ED20/IUP ED5” value in the experiment with Anesthetized Dogs [2] is reported as 2.1. Besides, the ED (5 mmHg IUP increase) with Anesthetized Dogs [3] was determined as 0.0771 µmol/kg.

`CCS(=O)(=O)Nc1cccc(Cc2c[nH]cn2)c1C.O=C(O)/C=C\C(=O)O` [Example 29, N-[3-(1H-imidazol-4-ylmethyl)-2-methylphenyl]ethanesulfonamide, maleate] yielded a Ki in experiment [1] (setting [5]) of 678 nM. Besides, the “Mean Selectivity Ratio MAP ED20/IUP ED5” value in the experiment with Anesthetized Dogs [2] was determined as 5.6. Also, in the experiment on Anesthetized Dogs [2] (in vivo, dogs), the “selectivity for increasing intraurethral pressure over arterial pressure as compared to N-(3-(1H-imidazol-4-ylmethyl)-2-methylphenyl]methanesulfonamide)” value is over 3 times. Besides, the ED (5 mmHg IUP increase) in the experiment with Anesthetized Dogs [3] worked out at 0.0411 µmol/kg.

`CC(c1cccc(NS(C)(=O)=O)c1)c1c[nH]cn1.O=C(O)/C=C\C(=O)O` (stereo not drawn) [Example 31, N-[3-[1-(1H-imidazol-4-yl)ethyl]phenyl]methanesulfonamide, maleate] registered a Ki in experiment [1] (setting [5]) of 685 nM. For the same compound, at α1A (rabbit urethra), the EC50 was 4170 nM. In the experiment on Anesthetized Dogs [2], the “Mean Selectivity Ratio MAP ED20/IUP ED5” value is given as 3.4. Also, in the experiment with Anesthetized Dogs [3], the ED (5 mmHg IUP increase) is 0.0916 µmol/kg.

Turning to `CS(=O)(=O)Nc1ccc(F)c2c1CCCC2c1c[nH]cn1.O=C(O)/C=C\C(=O)O` (stereo not drawn) [Example 44, N-[4-fluoro-5-(1H-imidazol-4-yl)-5,6,7,8-tetrahydro-1-naphthalenyl]methanesulfonamide, maleate], the Ki in experiment [1] (setting [4]) was 3050 nM. Besides, on α1A (rabbit urethra), the EC50 is 4900 nM. Moreover, in the experiment with Anesthetized Dogs [2], the ED (5 mmHg IUP increase) stood at 0.844 µmol/kg and the “Mean Selectivity Ratio MAP ED20/IUP ED5” value amounted to 1.0.

With `C=C(c1cccc(NS(=O)(=O)CC)c1)c1c[nH]cn1` [Example 45, N-{3-[1-(1H-imidazol-4-yl)vinyl]phenyly}ethanesulfonamide, maleate], the Ki in experiment [1] (setting [5]) came to 971 nM. Besides, the EC50 on α1A (rabbit urethra) is 2000 nM. For the same compound, the “Mean Selectivity Ratio MAP ED20/IUP ED5” value in the experiment with Anesthetized Dogs [2] was determined as 2.6.
